In US20220235255A1, “FLUORINE SUBSTITUTED UNSYMMETRICAL ETHERS, AND COMPOSITIONS, METHODS AND USES INCLUDING SAME” (HONEYWELL INTERNATIONAL INC., priority 2021, published 2022):

Tests used:
Format in all cases: physicochemical
Normal boiling point = assay: Normal boiling point
[1] = Flash point / non-flammability, ASTM D3828-16a, NFPA 30
Excerpt: Flash Point refers the lowest temperature at which vapors of the liquid will keep burning after the ignition source is removed as determined in accordance with ASTM D3828-16a.
The flash point of a thermal management composition or fluid refers the lowest temperature at which vapours of the composition will keep burning after the ignition source is removed as determined in accordance with ASTM D3828-16a.

[2] = Dielectric constant, ASTM D150-11, room temperature, 20 GHz
Excerpt: Dielectric Constant means the dielectric constant as measured in accordance with ASTM D150-11 at room temperature at 20 giga hertz (GHz).

With `FC(F)(F)COC(C(F)(F)F)C(F)(F)F` [Compound 1A, propane, 2-(2′,2′,2′-trifluorethoxy)-(1,1,1,3,3,3-hexafluoro)] the normal boiling point (Normal boiling point) was “about 69 °C”, the flash point [1] was “no flash point” and the dielectric constant [2] was “below 4”.
